Patent publication US20220009906A1, “ISOINDOLIN-1-ONE DERIVATIVES USEFUL AS GRK2 INHIBITORS” (priority 2020, published 2022)

These compounds were tested against T1, GRK2 (Homo sapiens, UniProt P25098) (assay: hGRK2 LANCE Ultra In Vitro Assay). Conditions: Biological Example 1 GRK2 Lancer IC50 (μM), 10 nM GRK2; 30 or 600 μM ATP (not stated which); multiple measurements listed individually.
T1 sequence (P25098 1-689): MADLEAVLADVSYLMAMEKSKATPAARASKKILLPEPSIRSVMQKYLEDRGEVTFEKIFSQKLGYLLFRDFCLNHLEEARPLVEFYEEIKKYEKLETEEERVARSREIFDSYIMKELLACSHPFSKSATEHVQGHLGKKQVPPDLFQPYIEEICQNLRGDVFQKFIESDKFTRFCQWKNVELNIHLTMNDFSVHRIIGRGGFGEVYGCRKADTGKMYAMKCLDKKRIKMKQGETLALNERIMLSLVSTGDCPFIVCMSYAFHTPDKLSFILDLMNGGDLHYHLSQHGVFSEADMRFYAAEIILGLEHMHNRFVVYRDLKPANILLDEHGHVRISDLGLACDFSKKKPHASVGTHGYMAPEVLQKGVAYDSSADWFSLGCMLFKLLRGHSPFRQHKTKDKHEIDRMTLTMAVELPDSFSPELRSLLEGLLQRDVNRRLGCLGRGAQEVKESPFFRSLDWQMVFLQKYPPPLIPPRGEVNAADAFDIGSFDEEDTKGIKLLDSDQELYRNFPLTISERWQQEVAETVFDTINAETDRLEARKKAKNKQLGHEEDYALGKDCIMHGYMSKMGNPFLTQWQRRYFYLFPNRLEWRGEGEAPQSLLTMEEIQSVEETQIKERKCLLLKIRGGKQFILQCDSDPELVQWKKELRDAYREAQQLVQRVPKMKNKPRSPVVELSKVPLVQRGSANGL
Assay type: biochemical
Method: hGRK2 LANCE Ultra In Vitro Assay
G-protein coupled receptor kinases (GR Kinases) desensitize activated G-protein coupled receptors (GPCRs), by phosphorylation of cytoplasmic loops or carboxyl-terminal tails of GPCRs. GRK2 is one of the 6 different GR kinases and is implicated in heart failure and diabetes.
This assay is sensitive and requires as low as 10 nM enzyme, in a total volume of 10 μL. In addition, the ATP concentration can be varied over a broad range, without interfering with the assay or changing the assay condition. […] Testing inhibitors routinely at both high and low ATP concentrations also enables identification of potential non-ATP competitive inhibitors.
Paroxetine was used as the reference compound in this assay.
Test compounds were dissolved in DMSO at 1 mM and were 3-fold serial diluted. The compound DMSO solutions were then added (100 nL) into a plate well using an acoustic dispenser. To each well was then added 20 nM GRK2 (5 μL) in assay buffer (20 mM HEPES, pH 7.5, 10 mM MgCl2, 0.001% Tween-20®). The plate was sealed and centrifuged at 1000 rpm for 1 min. The plate and wells containing a mixture of GRK2 and test compound were incubated at ambient temperature for 30 min (prior to initializing the enzymatic reaction).
Enzyme reactions were initiated by the addition of 4.9 μL Substrates/Eu-Ab mix to each well. […] Final concentrations of reagents in the assays were as follows: 20 mM HEPES, pH 7.5; 10 mM MgCl2; 0.001% Tween-20® (w/v); 30 or 600 μM ATP; 200 nM ULight-peptide; 4 nM Eu-Ab; 10 nM GRK2; and 1% DMSO.
The plates were sealed and centrifuged at 1000 rpm for 1 min. For reactions at low ATP concentration (30 μM), reaction mixtures were incubated at ambient temperature for 120 min. For reactions at high ATP concentration (600 μM), reaction mixtures were incubated at ambient temperature for 60 min.
The enzyme reactions were quenched by addition of 10 μL of 12 mM EDTA in 1× LANCE detection solution to each well. The plates were then incubated at ambient temperature for 30 min. Time-resolved fluorescence signal of reactions were read on an EnVision or PHERAstar plate reader with the following parameters: Excitation wavelength=337 nm; emission wavelength (donor)=620 nm; emission wavelength (acceptor)=665 nm.
The raw HTRF data were converted to % active as follows:
% active=(sample−NC)/(PC−NC)*100
where NC is the mean of negative control (reactions without GRK2), and PC is the mean of positive control (reactions with GRK2 but without inhibitor). IC50 values were determined from a 4-parameter fit, using the following equation:
Y=Bottom+(Top−Bottom)/(1+10^((Log IC50−X)*Hill slope))
where X=log10 of the compound concentration.
`COc1cccc(CN2C(=O)c3cc(-c4cn[nH]c4)ccc3C2CC(=O)O)c1` (stereo not drawn) [Compound 61, 2-(2-(3-Methoxybenzyl)-3-oxo-5-(1H-pyrazol-4-yl)isoindolin-1-yl)acetic acid] showed an IC50 of 0.012 µM. For `COc1cccc(C(COCC(N)=O)N2Cc3ccc(-c4cn[nH]c4)cc3C2=O)c1` (stereo not drawn) [Compound 62, 2-(2-(3-Methoxyphenyl)-2-(1-oxo-6-(1H-pyrazol-4-yl)isoindolin-2-yl)ethoxy)acetamide], the IC50 was 0.007 µM. `COc1cccc(C(COCCO)N2Cc3ccc(-c4cn[nH]c4)cc3C2=O)c1` (stereo not drawn) [Compound 63, 2-(2-(2-Hydroxyethoxy)-1-(3-methoxyphenyl)ethyl)-6-(1H-pyrazol-4-yl)isoindolin-1-one] was tested, and the IC50 was 0.008 µM. `COc1cccc(C(CO)N2Cc3ccc(-c4ccnc(N)n4)cc3C2=O)c1` (stereo not drawn) [Compound 64, 6-(2-aminopyrimidin-4-yl)-2-(2-hydroxy-1-(3-methoxyphenyl)ethyl)isoindolin-1-one] was tested, and the IC50 was 0.047 µM. Work on `CCOc1cccc(CN2C(=O)c3cc(-c4cn[nH]c4)ccc3C2CC#N)c1` (stereo not drawn) [Compound 65, 2-(2-(3-ethoxybenzyl)-3-oxo-5-(1H-pyrazol-4-yl)isoindolin-1-yl)acetonitrile] yielded an IC50 of 0.039 µM. With `COc1cccc(CN2Cc3ccc(-c4ccncc4)cc3C2=O)c1` [Compound 66] the IC50 was 0.023 µM. Work on `CC(C)Oc1cccc(CN2Cc3ccc(-c4cn[nH]c4)cc3C2=O)c1` [Compound 69, 2-(3-Isopropoxybenzyl)-6-(1H-pyrazol-4-yl)isoindolin-1-one] yielded an IC50 of 0.006 µM. `COc1cccc(C(C(=O)O)N2Cc3ccc(-c4cn[nH]c4)cc3C2=O)c1` (stereo not drawn) [Compound 71] gave an IC50 of 0.815 µM. For `COC(=O)[C@H](c1cccc(OC)c1)N1Cc2ccc(-c3cn[nH]c3)cc2C1=O` [Compound 72], the IC50 was 0.13 µM. For `CCOc1cccc([C@H](C(=O)OC)N2Cc3ccc(-c4cn[nH]c4)cc3C2=O)c1` [Compound 73], the IC50 was 1.39 µM. For `CCOc1cccc([C@H](C(=O)O)N2Cc3ccc(-c4cn[nH]c4)cc3C2=O)c1` [Compound 74], the IC50 was 4.2 µM. Compound `COc1cccc(CN2C(=O)c3cc(-c4cn[nH]c4)ccc3C23CCOC3)c1` (stereo not drawn) [Compound 75, 2′-(3-methoxybenzyl)-5′-(1H-pyrazol-4-yl)-4,5-dihydro-2H-spiro[furan-3,1′-isoindolin]-3′-one] has an IC50 of 0.007 µM. With `CCOc1cccc([C@H](C(=O)OC)N2Cc3ccc(-c4ccncc4)cc3C2=O)c1` [Compound 76] the IC50 was > 20 µM. In the case of `CCOc1cccc(C(C(=O)O)N2Cc3ccc(-c4ccncc4)cc3C2=O)c1` (stereo not drawn) [Compound 77], the IC50 is reported as > 20 µM. `COc1cccc(C(CO)N2C(=O)c3cc(-c4cn[nH]c4)ccc3C23CC=CC3)c1` (stereo not drawn) [Compound 78, 2′-(2-hydroxy-1-(3-methoxyphenyl)ethyl)-5′-(1H-pyrazol-4-yl)spiro[cyclopentane-1,1′-isoindolin]-3-en-3′-one] showed an IC50 of 0.06 µM. For `COc1cccc(C(CO)N2C(=O)c3cc(-c4cn[nH]c4)ccc3C23CCCC3)c1` (stereo not drawn) [Compound 79, 2′-(2-hydroxy-1-(3-methoxyphenyl)ethyl)-5′-(1H-pyrazol-4-yl)spiro[cyclopentane-1,1′-isoindolin]-3′-one], the IC50 was 0.03 µM. With `COc1cccc(C(CN(C)C)N2Cc3ccc(-c4cn[nH]c4)cc3C2=O)c1` (stereo not drawn) [Compound 80, 2-(2-(dimethylamino)-1-(3-methoxyphenyl)ethyl)-6-(1H-pyrazol-4-yl)isoindolin-1-one] the IC50 was 0.044 µM. `COc1cccc(CN2C(=O)c3cc(-c4cn[nH]c4)ccc3C23CCCCC3)c1` [Compound 81, 2′-(3-methoxybenzyl)-5′-(1H-pyrazol-4-yl)spiro[cyclohexane-1,1′-isoindolin]-3′-one] gave an IC50 of 0.011 µM. `COc1cccc(CN2C(=O)c3cc(-c4cn[nH]c4)ccc3C23CCOCC3)c1` [Compound 82, 2-(3-methoxybenzyl)-5-(1H-pyrazol-4-yl)-2′,3′,5′,6′-tetrahydrospiro[isoindoline-1,4′-pyran]-3-one] gave an IC50 of 0.007 µM. Work on `COc1cccc(C(CO)N2Cc3ccc(-c4cccnc4)cc3C2=O)c1` (stereo not drawn) [Compound 83, 2-(2-hydroxy-1-(3-methoxyphenyl)ethyl)-6-(pyridin-3-yl)isoindolin-1-one] yielded an IC50 of 0.024 µM. For `COc1cccc(C(Cc2nnn[nH]2)N2Cc3ccc(-c4cn[nH]c4)cc3C2=O)c1` (stereo not drawn) [Compound 84], the IC50 was 0.167 µM. `O=C1c2cc(-c3cn[nH]c3)ccc2CN1Cc1cccc(OCc2nn[nH]n2)c1` [Compound 88, 2-(3-((2H-Tetrazol-5-yl)methoxy)benzyl)-6-(1H-pyrazol-4-yl)isoindolin-1-one] showed an IC50 of 0.029 µM. `COc1cccc(CN2C(=O)c3cc(-c4cn[nH]c4)ccc3C23CCc2c(O)cccc23)c1` (stereo not drawn) [Compound 89, 4-hydroxy-2′-(3-methoxybenzyl)-5′-(1H-pyrazol-4-yl)-2,3-dihydrospiro[indene-1,1′-isoindolin]-3′-one] was tested, and the IC50 was 0.144 µM. Work on `O=C1c2cc(-c3cn[nH]c3)ccc2CN1Cc1cccc(OC2CCOC2)c1` (stereo not drawn) [Compound 90] yielded an IC50 of 0.137 µM. Compound `O=C1c2cc(-c3cn[nH]c3)ccc2CN1Cc1cccc(OC2COC2)c1` [Compound 91] has an IC50 of 0.116 µM. `COc1cccc(C(C(=O)c2ccccc2)N2Cc3ccc(-c4cn[nH]c4)cc3C2=O)c1` (stereo not drawn) [Compound 92, 2-(1-(3-methoxyphenyl)-2-oxo-2-phenylethyl)-6-(1H-pyrazol-4-yl)isoindolin-1-one] gave an IC50 of 5.01 µM. `COc1cccc(CN2C(=O)c3cc(-c4cn[nH]c4)ccc3C2Cc2nn[nH]n2)c1` (stereo not drawn) [Compound 93, 3-((2H-tetrazol-5-yl)methyl)-2-(3-methoxybenzyl)-6-(1H-pyrazol-4-yl)isoindolin-1-one] showed an IC50 of 0.02 µM. In the case of `COc1cccc(C(c2nn[nH]n2)N2Cc3ccc(-c4cn[nH]c4)cc3C2=O)c1` (stereo not drawn) [Compound 94, 2-((3-methoxyphenyl)(2H-tetrazol-5-yl)methyl)-6-(1H-pyrazol-4-yl)isoindolin-1-one], the IC50 is reported as 0.652 µM. For `COc1cccc([C@@H](C2CC2)N2Cc3ccc(-c4cn[nH]c4)cc3C2=O)c1` [Compound 96], the IC50 was 0.012 µM. Compound `COc1cccc(C(CC(=O)O)N2Cc3ccc(-c4cn[nH]c4)cc3C2=O)c1` (stereo not drawn) [Compound 100, 3-(3-methoxyphenyl)-3-(1-oxo-6-(1H-pyrazol-4-yl)isoindolin-2-yl)propanoic acid] has an IC50 of 6.24 µM. `COc1cccc(CN2C(=O)c3cc(-c4cn[nH]c4)ccc3C23CCC(O)C3O)c1` (stereo not drawn) [Compound 102, 2,3-dihydroxy-2′-(3-methoxybenzyl)-5′-(1H-pyrazol-4-yl)spiro[cyclopentane-1,1′-isoindolin]-3′-one] showed an IC50 of 0.006 µM. In the case of `O=C1c2cc(-c3cn[nH]c3)ccc2CN1Cc1cccc(Oc2ccccc2)c1` [Compound 103], the IC50 is reported as 0.033 µM. `CC(c1cccc(Oc2ccccc2)c1)N1Cc2ccc(-c3cn[nH]c3)cc2C1=O` (stereo not drawn) [Compound 104] was tested, and the IC50 was > 11 µM. For `COc1ccnc(CN2Cc3ccc(-c4cn[nH]c4)cc3C2=O)c1` [Compound 105], the IC50 was 0.071 µM. `O=C1c2cc(-c3ccncn3)ccc2CN1Cc1cccc(Oc2ccccc2)c1` [Compound 106] was tested, and the IC50 was 0.419 µM. Work on `COc1cccc(CN2C(=O)c3cc(-c4cn[nH]c4)ccc3C23CCC(C(=O)O)C3)c1` (stereo not drawn) [Compound 107, 2′-(3-methoxybenzyl)-3′-oxo-5′-(1H-pyrazol-4-yl)spiro[cyclopentane-1,1′-isoindoline]-3-carboxylic acid] yielded an IC50 of 0.005 µM.
